From EP1382597A2, “Steroid receptor modulator compounds and methods” (LIGAND PHARMACEUTICALS, INC., priority 1994, dated 1996)
Where two headings read alike, the source gives them in different places.

How the values were obtained:
human PR-B [1] = target: T1, human PR-B (Homo sapiens, UniProt P06401); experiment: Co-transfection assay, PR agonist activity; type: cell-based; details: for Emax: CV-1, read-out: PR Agonist CV-1 Cells Efficacy (%); for PR Agonist CV-1 Cells Efficacy (%): percent maximal response relative to reference agonist progesterone;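 for all read-outs here: CV-1 cells (African green monkey kidney) co-transfected with receptor plasmid and hormone-responsive firefly luciferase reporter, agonism read as compound-dependent rise in luciferase signal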
T1 construct: expressed in transfected cells; host or cells: CV-1 cells (African green monkey kidney fibroblasts), transient transfection
T1 sequence (P06401 1-933): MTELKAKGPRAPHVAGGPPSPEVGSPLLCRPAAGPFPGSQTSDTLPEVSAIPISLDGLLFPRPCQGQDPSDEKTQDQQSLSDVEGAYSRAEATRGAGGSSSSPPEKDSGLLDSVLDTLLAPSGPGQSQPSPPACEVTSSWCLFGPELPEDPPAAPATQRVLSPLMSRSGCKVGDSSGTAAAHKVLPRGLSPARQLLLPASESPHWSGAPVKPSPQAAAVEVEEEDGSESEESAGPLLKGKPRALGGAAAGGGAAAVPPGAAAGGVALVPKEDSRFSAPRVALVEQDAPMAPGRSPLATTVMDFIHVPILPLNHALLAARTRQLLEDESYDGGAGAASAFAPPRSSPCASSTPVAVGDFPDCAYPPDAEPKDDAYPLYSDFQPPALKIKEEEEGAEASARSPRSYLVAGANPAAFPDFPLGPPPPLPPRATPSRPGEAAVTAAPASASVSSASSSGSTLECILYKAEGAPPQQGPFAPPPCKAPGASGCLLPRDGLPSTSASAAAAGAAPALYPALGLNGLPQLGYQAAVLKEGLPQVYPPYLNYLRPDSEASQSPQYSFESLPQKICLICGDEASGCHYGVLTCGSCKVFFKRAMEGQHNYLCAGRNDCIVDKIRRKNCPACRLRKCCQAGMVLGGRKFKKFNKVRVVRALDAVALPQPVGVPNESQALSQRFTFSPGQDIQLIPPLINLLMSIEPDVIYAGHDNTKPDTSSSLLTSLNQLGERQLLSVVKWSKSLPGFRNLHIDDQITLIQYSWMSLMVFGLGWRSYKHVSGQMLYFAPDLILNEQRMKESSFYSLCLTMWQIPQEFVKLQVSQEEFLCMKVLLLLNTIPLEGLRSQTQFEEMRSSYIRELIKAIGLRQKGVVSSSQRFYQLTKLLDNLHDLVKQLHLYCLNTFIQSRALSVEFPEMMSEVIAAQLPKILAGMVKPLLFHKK

human PR-B [2] = target: T1, human PR-B; experiment: Co-transfection assay, PR antagonist activity; type: cell-based; details: for Emax: CV-1, read-out: PR Antagonist CV-1 Cells Efficacy (%);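 for all read-outs here: monkey kidney fibroblasts co-transfected with receptor expression plasmid and hormone-responsive luciferase reporter, antagonism read as reduced luciferase signal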
[3] = target: T2, human progesterone receptor A form (PR-A) (Homo sapiens, UniProt P06401); experiment: PR binding assay
T2 sequence (P06401 1-933): T1 sequence (P06401 1-933)

PR [4] = experiment: Uterine wet weight assay (PR agonist effectiveness); type: in vivo, Sprague-Dawely rats
Description: J. Obstet. […] R.I. Dorfman, Academic Press, New York, New York, pp101-130 (1969), the disclosures of which are herein incorporated by reference. Four to five week old, ovariectomized, Sprague-Dawely rats (Harlan-Sprague-Dawely, Indianapolis, IN) were obtained 1 week after surgery and allowed to acclimate for an additional week after shipment.

ER [5] = target: T3, ER (Homo sapiens, UniProt P03372); experiment: Co-transfection assay, ER antagonist activity; type: cell-based
T3 construct: expressed in transfected cells; host or cells: CV-1 cells, transient transfection, with MTV-ERE5-LUC reporter
T3 sequence (P03372 whole entry): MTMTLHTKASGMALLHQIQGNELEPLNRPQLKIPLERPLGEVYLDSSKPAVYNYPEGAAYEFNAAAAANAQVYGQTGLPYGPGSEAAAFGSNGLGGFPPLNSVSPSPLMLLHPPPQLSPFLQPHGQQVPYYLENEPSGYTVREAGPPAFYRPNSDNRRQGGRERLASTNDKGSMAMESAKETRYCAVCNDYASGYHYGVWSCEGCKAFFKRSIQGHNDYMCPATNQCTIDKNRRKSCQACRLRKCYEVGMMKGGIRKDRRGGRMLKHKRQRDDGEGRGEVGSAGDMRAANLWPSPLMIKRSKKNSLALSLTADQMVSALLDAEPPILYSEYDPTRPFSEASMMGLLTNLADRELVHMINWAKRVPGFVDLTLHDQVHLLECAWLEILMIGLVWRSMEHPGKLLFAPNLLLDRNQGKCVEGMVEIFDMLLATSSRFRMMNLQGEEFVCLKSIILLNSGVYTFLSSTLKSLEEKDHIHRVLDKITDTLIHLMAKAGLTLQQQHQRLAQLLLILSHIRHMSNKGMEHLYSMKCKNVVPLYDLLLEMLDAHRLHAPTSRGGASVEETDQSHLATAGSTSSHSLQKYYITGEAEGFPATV

MR = target: T4, MR (Homo sapiens, UniProt P08235); experiment: Co-transfection assay, MR antagonist activity; type: cell-based
T4 construct: expressed in transfected cells; host or cells: CV-1 cells, transient transfection
T4 sequence (P08235 1-984): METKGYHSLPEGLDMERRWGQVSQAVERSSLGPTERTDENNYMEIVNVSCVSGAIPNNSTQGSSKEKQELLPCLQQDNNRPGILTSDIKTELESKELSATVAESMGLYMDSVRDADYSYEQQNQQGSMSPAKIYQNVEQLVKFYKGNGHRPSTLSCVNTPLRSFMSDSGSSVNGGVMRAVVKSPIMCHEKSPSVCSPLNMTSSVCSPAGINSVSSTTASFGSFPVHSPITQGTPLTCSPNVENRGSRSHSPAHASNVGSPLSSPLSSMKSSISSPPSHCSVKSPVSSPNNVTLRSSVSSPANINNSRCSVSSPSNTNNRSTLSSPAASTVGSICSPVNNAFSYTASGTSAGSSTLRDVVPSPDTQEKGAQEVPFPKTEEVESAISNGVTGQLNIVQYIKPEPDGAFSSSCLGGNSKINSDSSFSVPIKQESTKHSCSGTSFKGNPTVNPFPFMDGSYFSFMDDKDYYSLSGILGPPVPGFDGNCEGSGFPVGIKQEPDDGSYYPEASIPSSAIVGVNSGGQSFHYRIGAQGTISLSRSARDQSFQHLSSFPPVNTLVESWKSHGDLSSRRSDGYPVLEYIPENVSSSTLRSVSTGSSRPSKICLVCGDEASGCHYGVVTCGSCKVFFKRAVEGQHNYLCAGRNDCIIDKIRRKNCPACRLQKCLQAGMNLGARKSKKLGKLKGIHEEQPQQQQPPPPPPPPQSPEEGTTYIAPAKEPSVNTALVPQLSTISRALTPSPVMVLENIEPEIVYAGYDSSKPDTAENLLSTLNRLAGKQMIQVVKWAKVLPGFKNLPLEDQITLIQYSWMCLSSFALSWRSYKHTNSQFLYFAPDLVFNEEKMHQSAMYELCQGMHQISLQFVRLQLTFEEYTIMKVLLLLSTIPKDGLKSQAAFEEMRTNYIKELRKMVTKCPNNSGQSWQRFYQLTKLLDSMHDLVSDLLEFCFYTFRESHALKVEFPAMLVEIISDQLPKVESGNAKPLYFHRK

ER [6] = target: T3, ER; experiment: Co-transfection assay, ER agonist activity; type: cell-based
GR = target: T5, GR (Homo sapiens, UniProt P04150); experiment: Co-transfection assay, GR antagonist activity; type: cell-based
T5 construct: expressed in transfected cells; host or cells: CV-1 cells, transient transfection
T5 sequence (P04150 1-777): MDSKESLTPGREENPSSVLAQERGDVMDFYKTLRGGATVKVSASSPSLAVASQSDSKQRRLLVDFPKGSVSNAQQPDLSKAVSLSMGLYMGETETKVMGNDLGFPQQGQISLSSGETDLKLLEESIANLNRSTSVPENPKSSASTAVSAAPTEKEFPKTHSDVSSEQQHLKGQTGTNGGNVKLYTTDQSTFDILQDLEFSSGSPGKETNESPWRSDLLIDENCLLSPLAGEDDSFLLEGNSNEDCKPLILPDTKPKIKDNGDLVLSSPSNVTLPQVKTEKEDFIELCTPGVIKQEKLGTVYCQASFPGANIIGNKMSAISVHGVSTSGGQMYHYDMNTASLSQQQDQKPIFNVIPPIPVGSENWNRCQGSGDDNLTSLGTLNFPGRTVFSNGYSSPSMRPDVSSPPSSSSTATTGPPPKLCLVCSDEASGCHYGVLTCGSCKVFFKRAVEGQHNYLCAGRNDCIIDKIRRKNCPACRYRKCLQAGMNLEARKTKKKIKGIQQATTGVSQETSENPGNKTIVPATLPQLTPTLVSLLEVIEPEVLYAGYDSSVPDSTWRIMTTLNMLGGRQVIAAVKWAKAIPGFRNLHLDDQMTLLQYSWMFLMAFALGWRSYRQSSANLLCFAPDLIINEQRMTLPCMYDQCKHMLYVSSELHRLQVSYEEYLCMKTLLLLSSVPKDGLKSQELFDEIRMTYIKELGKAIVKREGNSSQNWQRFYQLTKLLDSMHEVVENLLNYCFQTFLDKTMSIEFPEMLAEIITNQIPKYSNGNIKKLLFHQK

human AR = experiment: AR whole cell binding assay (COS-1 cells); details: whole COS-1 cells, competition with 1 nM 3H-DHT, three hours at 37°C
AR [7] = target: T6, AR (Homo sapiens, UniProt P10275); experiment: Co-transfection assay, AR antagonist activity; type: cell-based
T6 construct: expressed in transfected cells; host or cells: CV-1 cells, transient transfection
T6 sequence (P10275 whole entry): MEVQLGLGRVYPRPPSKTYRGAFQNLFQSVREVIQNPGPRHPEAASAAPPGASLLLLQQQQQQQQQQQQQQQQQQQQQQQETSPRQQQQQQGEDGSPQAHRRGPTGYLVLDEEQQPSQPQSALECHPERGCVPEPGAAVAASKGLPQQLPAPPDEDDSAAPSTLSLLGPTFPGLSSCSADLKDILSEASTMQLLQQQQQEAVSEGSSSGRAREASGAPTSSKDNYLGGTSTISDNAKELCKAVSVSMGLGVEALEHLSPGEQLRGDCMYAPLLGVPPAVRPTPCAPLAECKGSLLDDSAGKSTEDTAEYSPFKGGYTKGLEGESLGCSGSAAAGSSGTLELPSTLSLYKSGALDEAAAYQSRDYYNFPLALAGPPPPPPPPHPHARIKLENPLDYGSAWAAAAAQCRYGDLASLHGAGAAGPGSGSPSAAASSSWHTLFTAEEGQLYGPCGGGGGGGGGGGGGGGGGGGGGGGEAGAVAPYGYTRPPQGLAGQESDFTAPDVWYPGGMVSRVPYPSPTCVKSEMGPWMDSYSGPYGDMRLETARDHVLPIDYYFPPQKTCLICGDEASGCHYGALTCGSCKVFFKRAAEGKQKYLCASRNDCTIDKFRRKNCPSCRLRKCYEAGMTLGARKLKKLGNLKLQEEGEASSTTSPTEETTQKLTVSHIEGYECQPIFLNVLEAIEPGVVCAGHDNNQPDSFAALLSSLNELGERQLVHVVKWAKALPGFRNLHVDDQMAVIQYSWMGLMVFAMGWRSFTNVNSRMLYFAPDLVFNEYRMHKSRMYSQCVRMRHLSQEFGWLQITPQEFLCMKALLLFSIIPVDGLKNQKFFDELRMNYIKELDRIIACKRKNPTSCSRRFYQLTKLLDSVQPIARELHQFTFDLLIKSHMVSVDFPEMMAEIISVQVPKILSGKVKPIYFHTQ

AR [8] = target: T6, AR; experiment: Co-transfection assay, AR agonist activity; type: cell-based; details: CV-1 cells
PR [9] = experiment: Implantation assay (antiprogestin activity); type: in vivo, mice (ICR strain)
Description: Mating was assumed to have taken place at 02.00 h, time 0.
Compound 150 was dissolved in sesame oil (50 mg/mL) and kept at room temperature before use. […] Control animals received an equivuivalent volume of the control vehicle, sesame oil, alone.
The animals were sacrificed, and autopsies were carried out at Day 8 of pregnancy, and numbers of implantation sites counted and recorded, and are shown in Table 7 below. Each group consisted of between 5 and 7 animals.

[10] = CV-1 cells, agonist potency = EC50, read-out: PR Agonist CV-1 Cells Potency
[11] = competition with [3H] progesterone, baculovirus extract, 4°C, 16 hours, read-out: PR Binding Ki

Compound C[C@H]1C(=O)C(C)(C)Nc2ccc3c(c21)O[C@H](c1ccccc1)c1ccccc1-3 (relative stereo) [Compound 391, (R/S-4l,6l)-1,2,3,4-Tetrahydro-2,2,4-trimethyl-6-phenyl-5H-isochromeno[3,4-f]-3-quinolinone] has an EC50 (human PR-B [1]) greater than 10000 nM, an Emax (human PR-B [1]) of less than 20% and an IC50 (human PR-B [2]) of 120 nM. For the same compound, the Emax (human PR-B [2]) was 65% and the Ki [3] was 187 nM.

For CC1=CC(C)(C)Nc2ccc3c(c21)C(c1ccc(Cl)cc1)Oc1ccccc1-3 (racemic) [Compound 163, (R/S)-5-(4-Chlorophenyl)-1,2-dihydro-2,2,4-trimethyl-5H-chromeno[3,4-f]quinoline], the “Mean Uterine Wet Weight” value (PR [4]; 3.0 mg/rat oral once a day for three days in the presence of estrone (10 µg/day, subcutaneous)) was 125 mg, the “effect on mean uterine wet weight” value (PR [4]; co-administered with estrone, dosage of 3 mg/rat) was “decreased by approximately half” and the IC50 (ER [5]) was 2150 nM. For the same compound, the Emax (human PR-B [1]) was 77%, the IC50 (MR) was 1450 nM and the EC50 (ER [6]) was greater than 10000 nM. For the same compound, the Emax (human PR-B [2]) was 45% and the IC50 (GR) was 1330 nM.

With “8-(4-Chlorobenzoyl)-5-trifluoromethyl-7-pyridono[5,6-e]indoline [Compound 420]” the Ki (human AR) was 346 nM, the IC50 (AR [7]; CV-1 cells, antagonist potency = IC50, DHT at its EC50, read-out: AR Antagonist CV-1 Cells Potency) was 32 nM and the “AR Antagonist CV-1 Cells Efficacy (%)” value (AR [7]; CV-1 cells, percent maximal inhibition, DHT at its EC50) was 80%. For the same compound, the EC50 (AR [8]; agonist potency = EC50) was 2100 nM and the “AR Agonist CV-1 Cells Efficacy (%)” value (AR [8]; relative to reference agonist DHT) was 40%.

In the case of “(R/S-4l,5l)-3-Benzenzylidene-5-(4-chlorophenyl)-1,2,3,4-tetrahydro-2,2,4-trimethyl-5H-chromeno[3,4-f]quinoline [Compound 401]”, the EC50 (human PR-B [1]; [10]) is reported as 600 nM, the “PR Agonist CV-1 Cells Efficacy (%)” value (human PR-B [1]; CV-1 cells) is reported as 43% and the IC50 (human PR-B [2]; CV-1 cells, antagonist potency = IC50, progesterone at its EC50, read-out: PR Antagonist CV-1 Cells Potency) is reported as greater than 10000 nM. For the same compound, the “PR Antagonist CV-1 Cells Efficacy (%)” value (human PR-B [2]; CV-1 cells, percent maximal inhibition, progesterone at its EC50) was “na (na = not active (i.e. efficacy of <20 and potency of >10,000))” and the Ki [3, 11] was 150 nM.

Work on CC1=CC(C)(C)Nc2ccc(-c3cccc(C#N)c3)cc21 [Compound 150, 6-(3-Cyanophenyl)-1,2-dihydro-2,2,4-trimethylquinoline] yielded an IC50 (ER [5]) greater than 10000 nM, an Emax (human PR-B [1]) of 24% and an IC50 (AR [7]) of 140 nM. The “Percent Pregnancy Rate” value (PR [9]; 5.0 mg/day oral, days 2 to 4 of pregnancy, mice) was 0, the “effect on pregnancy rate with simultaneous PR agonist” value (PR [9]; simultaneous injection of R5020 (promegestone) at 1.0 mg per day) was “reversed to the control level” and the IC50 (MR) was 1900 nM. The Emax (human PR-B [2]) was 91% and the IC50 (GR) was 2700 nM.

In the case of “8-Bromo-1,2-dihydro-2,2,4-trimethylindeno[1,2-g]quinoline [Compound 117]”, the EC50 (human PR-B [1]; [10]) is reported as greater than 10000 nM, the “PR Agonist CV-1 Cells Efficacy (%)” value (human PR-B [1]; CV-1 cells) is reported as “na (na = not active (i.e. efficacy of <20 and potency of >10,000))” and the Ki [3, 11] is reported as greater than 10000 nM.

Work on CC1=CC(C)(C)Nc2ccc(-c3cccc(F)c3F)cc21 [Compound 152, 6-(2,3-Difluorophenyl)-1,2-dihydro-2,2,4-trimethylquinoline] yielded an EC50 (human PR-B [1]) greater than 10000 nM, an Emax (human PR-B [1]) of less than 20% and an IC50 (human PR-B [2]) of 130 nM. The Emax (human PR-B [2]) was 82% and the Ki [3] was 53 nM.
